Reference: PMC4551467 (EBioMedicine, 2015)
Entries after “also recorded” stand apart in the source; their conditions may differ.

Tests used:
[1] = test system: GM05757 human normal cells; type: cell-based
[2] = mouse, in vivo
[3] = mouse, in vivo; remark: listed apart in the source
[4] = test system: HeLa, ME-180, MDA-MB-231, A549 and NIH:OVCAR-3 cancer cells; assay: cells; type: cell-based; settings: Homo sapiens, 72 h, read-out: IC50 against cancer cells
[5] = test system: NIH:OVCAR-3 cisplatin-resistant human ovarian cancer cells; assay: cells; type: cell-based
MRC-5 human normal cells = type: cell-based
[6] = test system: A549 lung cancer xenograft tumor tissue; set-up: species or system SCID mice; settings: mouse, in vivo
[7] = test system: NIH:OVCAR-3 ovarian cancer xenograft; set-up: species or system SCID mice; settings: mouse, in vivo
[8] = test system: human normal cells (GM05757 and MRC-5); type: cell-based; settings: read-out: IC50 toward human normal cells
[9] = test system: MRC-5 human lung normal cells; type: cell-based; settings: read-out: IC50 (agent concentration to kill 50% of untreated cells), MRC-5
[10] = mouse, in vivo, cited from earlier work

Compound | increase of the GSH level in normal cells [1] | overall physical toxicity in mice [2] | acute toxicity in mice (hepatotoxicity, nephrotoxicity, electrolytes) [3] | IC50 [4] [µM] | IC50 ([5]; Homo sapiens, OVCAR-3, 72 h, read-out: IC50, NIH:OVCAR-3) [µM] | caspase activation (apoptosis) in normal cells (MRC-5 human normal cells) | apoptosis in tumor tissue (TUNEL) vs untreated group [6] | cisplatin-resistant ovarian (NIH:OVCAR-3) tumor growth vs control [7] | IC50 [8] [µM] | IC50 [9] [µM] | mean body weight compared to vehicle control ([10]; 2.3 mg/kg) | levels of blood urea nitrogen (BUN) ([10]; 15 mg/kg) | mice that died within 5 days ([10]; 15 mg/kg) | NIH:OVCAR-3 cancer cells surviving high-dose treatment [5] | activation of caspase-3 and -7 in MRC-5 normal cells (MRC-5 human normal cells)
Nc1cc(Br)c(Br)cc1N [FMD-2Br-DAB, 4,5-dibromo-1,2-phenylenediamine] | about 40% | no overall physical toxicity | no acute toxicity | 15 to 75 | 175 | negligible caspase activation | significant enhancement in apoptosis | – | – | – | – | – | – | – | –
Nc1cc(I)c(I)cc1N [FMD-2I-DAB, 4,5-diiodo-1,2-phenylenediamine] | – | no overall physical toxicity | no acute toxicity | 15 to 75 | – | negligible caspase activation | significant enhancement in apoptosis; also recorded: most effective inducer of apoptosis | effectively suppressed | – | – | – | – | – | – | –
cisplatin | – | – | – | – | – | – | – | – | ≤ 10 | ~6 | significant decrease | significantly elevated | Half | about 12% | significant activation
